According to ChEMBL document CHEMBL1201862, “PubChem BioAssay data set” (2004):
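Exposure lasted 48 hours, with cells grown in 96-well plates and compounds tested at five concentrations. At the GI50, growth is halved.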 The source made the active and inactive calls. Rule as the data show it: active = GI50 up to about 1.1 µM and inactive = higher.

What was measured:
Assay in all cases: inhibition of tumour cell growth, NCI panel, 48 h
[1] = tested on: 786-0
[2] = tested on: A498
[3] = tested on: A549
[4] = tested on: ACHN
[5] = tested on: CAKI-1
[6] = tested on: CCRF-CEM
[7] = tested on: COLO 205
[8] = tested on: DMS-273
[9] = tested on: EKVX
[10] = tested on: HCC 2998
[11] = tested on: HCT-116
[12] = tested on: HL-60
[13] = tested on: HOP-18
[14] = tested on: HOP-62
[15] = tested on: HOP-92
[16] = tested on: HT-29
[17] = tested on: IGROV-1
[18] = tested on: K562
[19] = tested on: KM-20L2
[20] = tested on: KM12
[21] = tested on: LOX IMVI
[22] = tested on: LXFL 529
[23] = tested on: M19-MEL
[24] = tested on: MOLT-4
[25] = tested on: Malme-3M
[26] = tested on: NCI-H226
[27] = tested on: NCI-H23
[28] = tested on: NCI-H460
[29] = tested on: NCI-H522
[30] = tested on: OVCAR-4
[31] = tested on: OVCAR-5
[32] = tested on: OVCAR-8
[33] = tested on: RXF 393
[34] = tested on: RXF 631
[35] = tested on: SF-268
[36] = tested on: SF-295
[37] = tested on: SF-539
[38] = tested on: SK-MEL-28
[39] = tested on: SK-MEL-2
[40] = tested on: SK-OV-3
[41] = tested on: SN12C
[42] = tested on: SNB-19
[43] = tested on: SNB-78
[44] = tested on: SR
[45] = tested on: SW-620
[46] = tested on: TK-10
[47] = tested on: U-251
[48] = tested on: UACC-257
[49] = tested on: XF498
[50] = tested on: BT-549
[51] = tested on: DLD-1
[52] = tested on: DMS-114
[53] = tested on: DU-145
[54] = tested on: HCT-15
[55] = tested on: Hs-578T
[56] = tested on: M14
[57] = tested on: MCF7
[58] = tested on: MDA-MB-231
[59] = tested on: MDA-MB-435
[60] = tested on: MDA-N
[61] = tested on: NCI/ADR-RES
[62] = tested on: OVCAR-3
[63] = tested on: PC-3
[64] = tested on: RPMI-8226
[65] = tested on: SK-MEL-5
[66] = tested on: SNB-75
[67] = tested on: T47D
[68] = tested on: UACC-62
[69] = tested on: UO-31

How did the GI50 [1] turn out when `COC(=O)C12C34C=CC5(CCC6(C=CC1(CC3)O6)C52C(=O)OC)O4` (configuration not stated) was run?
The GI50 was > 100 µM (inactive).

What about the GI50 [2] of the same compound?
The GI50 was 93.3 µM (inactive).

And the GI50 [3]?
Its GI50 is > 100 µM (inactive).

And the GI50 [4]?
The GI50 was > 100 µM (inactive).

What about the GI50 [5] of the same compound?
The GI50 was > 100 µM (inactive).

And the GI50 [6]?
Its GI50 is > 100 µM (inactive).

And the GI50 [7]?
The GI50 was > 100 µM (inactive).

What about the GI50 [8] of the same compound?
The GI50 was > 100 µM (inactive).

What about the GI50 [9] of the same compound?
The GI50 was > 100 µM (inactive).

And the GI50 [10]?
The GI50 was > 100 µM (inactive).

And the GI50 [11]?
Its GI50 is > 100 µM (inactive).

And the GI50 [12]?
The GI50 was > 100 µM (inactive).

And the GI50 [13]?
Its GI50 is > 100 µM (inactive).

And the GI50 [14]?
The GI50 was > 100 µM (inactive).

What about the GI50 [15] of the same compound?
Its GI50 is > 100 µM (inactive).

And the GI50 [16]?
The GI50 was > 100 µM (inactive).

What about the GI50 [17] of the same compound?
The GI50 was > 100 µM (inactive).

What about the GI50 [18] of the same compound?
The GI50 was > 100 µM (inactive).

And the GI50 [19]?
Its GI50 is > 100 µM (inactive).

And the GI50 [20]?
The GI50 was > 100 µM (inactive).

What about the GI50 [21] of the same compound?
Its GI50 is > 100 µM (inactive).

And the GI50 [22]?
The GI50 was > 100 µM (inactive).

What about the GI50 [23] of the same compound?
The GI50 was > 100 µM (inactive).

What about the GI50 [24] of the same compound?
The GI50 was > 100 µM (inactive).

What about the GI50 [25] of the same compound?
The GI50 was > 100 µM (inactive).

And the GI50 [26]?
Its GI50 is > 100 µM (inactive).

And the GI50 [27]?
The GI50 was > 100 µM (inactive).

What about the GI50 [28] of the same compound?
The GI50 was > 100 µM (inactive).

And the GI50 [29]?
The GI50 was > 100 µM (inactive).

And the GI50 [30]?
Its GI50 is > 100 µM (inactive).

And the GI50 [31]?
Its GI50 is > 100 µM (inactive).

And the GI50 [32]?
Its GI50 is > 100 µM (inactive).

What about the GI50 [33] of the same compound?
Its GI50 is 75 µM (inactive).

What about the GI50 [34] of the same compound?
Its GI50 is > 100 µM (inactive).

And the GI50 [35]?
Its GI50 is > 100 µM (inactive).

What about the GI50 [36] of the same compound?
The GI50 was > 100 µM (inactive).

What about the GI50 [37] of the same compound?
Its GI50 is > 100 µM (inactive).

What about the GI50 [38] of the same compound?
The GI50 was > 100 µM (inactive).

And the GI50 [39]?
The GI50 was > 100 µM (inactive).

And the GI50 [40]?
Its GI50 is > 100 µM (inactive).

What about the GI50 [41] of the same compound?
Its GI50 is > 100 µM (inactive).

And the GI50 [42]?
The GI50 was > 100 µM (inactive).

And the GI50 [43]?
The GI50 was > 100 µM (inactive).

What about the GI50 [44] of the same compound?
The GI50 was > 100 µM (inactive).

And the GI50 [45]?
The GI50 was > 100 µM (inactive).

And the GI50 [46]?
Its GI50 is > 100 µM (inactive).

And the GI50 [47]?
Its GI50 is > 100 µM (inactive).

And the GI50 [48]?
The GI50 was > 100 µM (inactive).

And the GI50 [49]?
Its GI50 is 46.8 µM (inactive).

`O=[As]O` was tested. Which GI50 [1] did it give?
Its GI50 is > 57.3 µM (inactive).

And the GI50 [2]?
The GI50 was > 74.6 µM (inactive).

And the GI50 [3]?
Its GI50 is > 100 µM (inactive).

What about the GI50 [4] of the same compound?
The GI50 was > 100 µM (inactive).

And the GI50 [50]?
Its GI50 is 41.3 µM (inactive).

What about the GI50 [5] of the same compound?
The GI50 was > 56.1 µM (inactive).

What about the GI50 [6] of the same compound?
The GI50 was 15.6 µM (inactive).

And the GI50 [7]?
The GI50 was > 90.6 µM (inactive).

What about the GI50 [51] of the same compound?
Its GI50 is 17.8 µM (inactive).

And the GI50 [52]?
The GI50 was 13.1 µM (inactive).

What about the GI50 [8] of the same compound?
Its GI50 is 24.2 µM (inactive).

What about the GI50 [53] of the same compound?
Its GI50 is > 100 µM (inactive).

And the GI50 [9]?
The GI50 was > 60 µM (inactive).

What about the GI50 [10] of the same compound?
The GI50 was > 100 µM (inactive).

What about the GI50 [11] of the same compound?
The GI50 was > 93.3 µM (inactive).

And the GI50 [54]?
Its GI50 is over 52.5 µM.

What about the GI50 [12] of the same compound?
Its GI50 is 9.82 µM (inactive).

And the GI50 [14]?
The GI50 was > 100 µM (inactive).

What about the GI50 [15] of the same compound?
The GI50 was > 41.6 µM (inactive).

What about the GI50 [16] of the same compound?
Its GI50 is > 66.2 µM (inactive).

What about the GI50 [55] of the same compound?
The GI50 was > 100 µM (inactive).

What about the GI50 [17] of the same compound?
The GI50 was 28 µM (inactive).

What about the GI50 [18] of the same compound?
Its GI50 is 37.7 µM (inactive).

And the GI50 [19]?
Its GI50 is 48.3 µM (inactive).

And the GI50 [20]?
Its GI50 is > 100 µM (inactive).

What about the GI50 [21] of the same compound?
The GI50 was > 47.9 µM (inactive).

What about the GI50 [22] of the same compound?
The GI50 was 16.2 µM (inactive).

What about the GI50 [56] of the same compound?
Its GI50 is > 50.5 µM (inactive).

What about the GI50 [23] of the same compound?
The GI50 was 20.5 µM (inactive).

And the GI50 [57]?
The GI50 was 28.6 µM (inactive).

What about the GI50 [58] of the same compound?
The GI50 was > 100 µM (inactive).

And the GI50 [59]?
The GI50 was > 100 µM (inactive).

And the GI50 [60]?
Its GI50 is > 100 µM (inactive).

And the GI50 [24]?
The GI50 was > 56.8 µM (inactive).

What about the GI50 [25] of the same compound?
The GI50 was 25.3 µM (inactive).

What about the GI50 [26] of the same compound?
Its GI50 is > 48.3 µM (inactive).

What about the GI50 [27] of the same compound?
Its GI50 is > 48.3 µM (inactive).

And the GI50 [28]?
Its GI50 is > 100 µM (inactive).

What about the GI50 [29] of the same compound?
The GI50 was 22.8 µM (inactive).

What about the GI50 [61] of the same compound?
Its GI50 is > 100 µM (inactive).

What about the GI50 [62] of the same compound?
Its GI50 is > 45.7 µM (inactive).

What about the GI50 [30] of the same compound?
Its GI50 is > 91.6 µM (inactive).

And the GI50 [31]?
Its GI50 is > 100 µM (inactive).

What about the GI50 [32] of the same compound?
Its GI50 is > 43.8 µM (inactive).

What about the GI50 [63] of the same compound?
The GI50 was > 100 µM (inactive).

What about the GI50 [64] of the same compound?
Its GI50 is > 40.5 µM (inactive).

What about the GI50 [33] of the same compound?
Its GI50 is > 32.9 µM (inactive).

What about the GI50 [34] of the same compound?
The GI50 was 10.1 µM (inactive).

What about the GI50 [35] of the same compound?
The GI50 was > 47.1 µM (inactive).

And the GI50 [36]?
The GI50 was > 81.1 µM (inactive).

And the GI50 [37]?
The GI50 was 22.8 µM (inactive).

And the GI50 [38]?
The GI50 was > 59 µM (inactive).

And the GI50 [39]?
Its GI50 is > 59.6 µM (inactive).

And the GI50 [65]?
The GI50 was 32.4 µM (inactive).

And the GI50 [40]?
The GI50 was > 100 µM (inactive).

And the GI50 [41]?
Its GI50 is > 48.4 µM (inactive).

What about the GI50 [42] of the same compound?
Its GI50 is > 67.5 µM (inactive).

What about the GI50 [66] of the same compound?
Its GI50 is > 51.1 µM (inactive).

What about the GI50 [43] of the same compound?
Its GI50 is 12.6 µM (inactive).

And the GI50 [44]?
Its GI50 is 18.9 µM (inactive).

What about the GI50 [45] of the same compound?
The GI50 was > 64.1 µM (inactive).

What about the GI50 [67] of the same compound?
Its GI50 is > 100 µM (inactive).

And the GI50 [46]?
The GI50 was > 100 µM (inactive).

What about the GI50 [47] of the same compound?
The GI50 was 23.2 µM (inactive).

And the GI50 [48]?
The GI50 was > 48.6 µM (inactive).

What about the GI50 [68] of the same compound?
The GI50 was > 39.1 µM (inactive).

What about the GI50 [69] of the same compound?
Its GI50 is > 100 µM (inactive).

And the GI50 [49]?
Its GI50 is 17.5 µM (inactive).
